Results: the supplement of paper PMC5908809

What was measured:
[1] = test system: normal NK cells expanded with K562-aAPC; experiment: percent inhibition of viability; higher = more inhibition; conditions: 72 h, IL-2 2.5 ng/mL
Description: (§1)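 Drug sensitivity and resistance testing on K562-aAPC-expanded normal NK cells: 5 concentrations (10-fold steps over a 10,000-fold range), 72 h at 37 °C, viability by CellTiter-Glo normalised to DMSO and benzethonium chloride controls; DSS from the fitted curve.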

DERL-7 (IL-2 2.5 ng/mL) [2] = experiment: as above; conditions: 72 h
IMC-1 (IL-2 20 ng/mL) [3] = experiment: as above; conditions: 72 h
KAI3 (IL-2 2.5 ng/mL) [4] = experiment: as above; conditions: 72 h
KHYG-1 (IL-2 2.5 ng/mL) [5] = experiment: as above; conditions: 72 h
NK-92 (IL-2 2.5 ng/mL) [6] = experiment: as above; conditions: 72 h
NK-YS (IL-2 2.5 ng/mL) [7] = experiment: as above; conditions: 72 h
NKL (IL-2 2.5 ng/mL) [8] = experiment: as above; conditions: 72 h
SNK-6 (IL-2 2.5 ng/mL) [9] = experiment: as above; conditions: 72 h
YT (IL-2 2.5 ng/mL) [10] = experiment: as above; conditions: 72 h
[11] = test system: normal primary NK cells, pool 1 (3 donors) (IL-2 2.5 ng/mL); experiment: as above; conditions: 72 h
[12] = test system: normal primary NK cells, pool 1 (3 donors), resting (IL-2 0 ng/mL); experiment: as above; conditions: 72 h
[13] = test system: normal primary NK cells, pool 2 (3 donors) (IL-2 2.5 ng/mL); experiment: as above; conditions: 72 h
[14] = test system: normal primary NK cells, pool 3 (3 donors) (IL-2 2.5 ng/mL); experiment: as above; conditions: 72 h
[15] = test system: normal NK cells expanded with K562-aAPC; experiment: drug sensitivity score (DSS) (DSS units); higher = more sensitive; extreme values may be limits of the assay; conditions: 72 h; IL-2 2.5 ng/mL
Description: as §1

DERL-7 (IL-2 2.5 ng/mL) [16] = experiment: as above; conditions: 72 h
IMC-1 (IL-2 20 ng/mL) [17] = experiment: as above; conditions: 72 h
KAI3 (IL-2 2.5 ng/mL) [18] = experiment: as above; conditions: 72 h
KHYG-1 (IL-2 2.5 ng/mL) [19] = experiment: as above; conditions: 72 h
NK-92 (IL-2 2.5 ng/mL) [20] = experiment: as above; conditions: 72 h
NK-YS (IL-2 2.5 ng/mL) [21] = experiment: as above; conditions: 72 h
NKL (IL-2 2.5 ng/mL) [22] = experiment: as above; conditions: 72 h
SNK-6 (IL-2 2.5 ng/mL) [23] = experiment: as above; conditions: 72 h
YT (IL-2 2.5 ng/mL) [24] = experiment: as above; conditions: 72 h
[25] = test system: normal primary NK cells, pool 1 (3 donors) (IL-2 2.5 ng/mL); experiment: as above; conditions: 72 h
[26] = test system: normal primary NK cells, pool 1 (3 donors), resting (IL-2 0 ng/mL); experiment: as above; conditions: 72 h
[27] = test system: normal primary NK cells, pool 2 (3 donors) (IL-2 2.5 ng/mL); experiment: as above; conditions: 72 h
[28] = test system: normal primary NK cells, pool 3 (3 donors) (IL-2 2.5 ng/mL); experiment: as above; conditions: 72 h

CCN1CCN(Cc2ccc(-c3cc4c(N[C@H](C)c5ccccc5)ncnc4[nH]3)cc2)CC1 [NVP-AEE788] (max concentration tested 2500 nM)
percent inhibition of viability [%]
Conditions	0.25 nM	2.5 nM	25 nM	250 nM	2500 nM
DERL-7 (IL-2 2.5 ng/mL) [2]	-0.87	0.92	1.23	5.24	19.9
IMC-1 (IL-2 20 ng/mL) [3]	-8.78	-2.35	1.14	-4.8	5.2
KAI3 (IL-2 2.5 ng/mL) [4]	-3.14	-7.58	-0.99	5.51	26.6
KHYG-1 (IL-2 2.5 ng/mL) [5]	-7.12	-8.65	-3.24	-0.41	22.7
NK-92 (IL-2 2.5 ng/mL) [6]	-16	-4.1	-2.66	13.6	51
NK-YS (IL-2 2.5 ng/mL) [7]	-8.61	-8.85	-3.03	-1.23	17.7
NKL (IL-2 2.5 ng/mL) [8]	-2.78	3.21	7.84	20	48.2
SNK-6 (IL-2 2.5 ng/mL) [9]	-12.2	-14.1	-23.9	-6.92	9.17
YT (IL-2 2.5 ng/mL) [10]	-6.59	-5.53	-3.48	7.61	27.4
[1]	-8.59	-5.81	-0.99	4.64	27.8
[11]	4.7	13.8	6.81	9.36	16.1
[12]	-1.29	14.4	9.7	11.1	5.88
[13]	-10.9	9.29	3.66	5.84	2.8
[14]	-4.61	9.35	9.18	5.89	-1.16

Conditions	drug sensitivity score
DERL-7 (IL-2 2.5 ng/mL) [16]	1.24
IMC-1 (IL-2 20 ng/mL) [17]	0
KAI3 (IL-2 2.5 ng/mL) [18]	1.9
KHYG-1 (IL-2 2.5 ng/mL) [19]	0.75
NK-92 (IL-2 2.5 ng/mL) [20]	4.8
NK-YS (IL-2 2.5 ng/mL) [21]	0.35
NKL (IL-2 2.5 ng/mL) [22]	4.63
SNK-6 (IL-2 2.5 ng/mL) [23]	0
YT (IL-2 2.5 ng/mL) [24]	2.2
[15]	1.88
[25]	0
[26]	0.04
[27]	0
[28]	0

CCN1CCN(c2ccc(Nc3cc(N(C)C(=O)Nc4c(Cl)c(OC)cc(OC)c4Cl)ncn3)cc2)CC1 [NVP-BGJ398] (max concentration tested 1000 nM)
percent inhibition of viability [%]
Conditions	0.1 nM	1 nM	10 nM	100 nM	1000 nM
DERL-7 (IL-2 2.5 ng/mL) [2]	2.66	5.38	2.13	4.05	8.48
IMC-1 (IL-2 20 ng/mL) [3]	-7.18	3.41	-1.12	4.31	-1.42
KAI3 (IL-2 2.5 ng/mL) [4]	-2.53	-7.26	-1.75	2.95	5.14
KHYG-1 (IL-2 2.5 ng/mL) [5]	-6.77	-2.35	-1.84	3.9	22.1
NK-92 (IL-2 2.5 ng/mL) [6]	-11.4	1.56	9.63	19.4	17.8
NK-YS (IL-2 2.5 ng/mL) [7]	-4.6	-4.02	-4.62	-2.71	6.5
NKL (IL-2 2.5 ng/mL) [8]	-0.94	-7.47	0.95	4.24	15
SNK-6 (IL-2 2.5 ng/mL) [9]	-1.53	-0.29	-14.4	-13.1	-6.84
YT (IL-2 2.5 ng/mL) [10]	-2.36	0.47	-1.37	5.31	11.7
[1]	-0.93	-6.78	-4.9	4.74	2.68
[11]	4.34	9.33	11.6	4.78	12.1
[12]	-6.47	4.3	1.93	4.77	19.9
[13]	-8.08	5.48	12.3	1.57	12.6
[14]	-6.2	7.43	9.02	0.22	7.33

Conditions	drug sensitivity score
DERL-7 (IL-2 2.5 ng/mL) [16]	0
IMC-1 (IL-2 20 ng/mL) [17]	0
KAI3 (IL-2 2.5 ng/mL) [18]	0
KHYG-1 (IL-2 2.5 ng/mL) [19]	1.3
NK-92 (IL-2 2.5 ng/mL) [20]	3.27
NK-YS (IL-2 2.5 ng/mL) [21]	0
NKL (IL-2 2.5 ng/mL) [22]	0.59
SNK-6 (IL-2 2.5 ng/mL) [23]	0
YT (IL-2 2.5 ng/mL) [24]	0.2
[15]	0
[25]	0
[26]	1.18
[27]	0.05
[28]	0

CCOc1cc2ncc(C#N)c(Nc3ccc(OCc4ccccn4)c(Cl)c3)c2cc1NC(=O)/C=C/CN(C)C [Neratinib] (max concentration tested 1000 nM)
percent inhibition of viability [%]
Conditions	0.1 nM	1 nM	10 nM	100 nM	1000 nM
DERL-7 (IL-2 2.5 ng/mL) [2]	-7.68	3.12	6.29	8.45	68.9
IMC-1 (IL-2 20 ng/mL) [3]	-2.69	-1.05	1.8	4.28	1.07
KAI3 (IL-2 2.5 ng/mL) [4]	-4.25	-5.47	-6.36	0.65	48.1
KHYG-1 (IL-2 2.5 ng/mL) [5]	4.6	-0.87	25.1	2.37	22
NK-92 (IL-2 2.5 ng/mL) [6]	3.19	-13.2	7.23	7.67	55.4
NK-YS (IL-2 2.5 ng/mL) [7]	-2.05	-4.96	-1.85	-5.03	15.2
NKL (IL-2 2.5 ng/mL) [8]	-1.48	12.9	8.45	12.5	40.4
SNK-6 (IL-2 2.5 ng/mL) [9]	11	16.1	38.2	6.35	35.7
YT (IL-2 2.5 ng/mL) [10]	1.33	4.12	5.46	1.01	10.2
[1]	-2.53	0.83	-1.65	8.19	50
[11]	-6.45	-7.28	-6.63	-9.14	36.2
[12]	-2.47	-22.5	-7.51	-6.96	70.1
[13]	-8.13	-2.28	2.22	-1.98	33.3
[14]	-13.9	-5.37	-1.66	-10.9	18.9

Conditions	drug sensitivity score
DERL-7 (IL-2 2.5 ng/mL) [16]	5.21
IMC-1 (IL-2 20 ng/mL) [17]	0
KAI3 (IL-2 2.5 ng/mL) [18]	2.59
KHYG-1 (IL-2 2.5 ng/mL) [19]	1.72
NK-92 (IL-2 2.5 ng/mL) [20]	4.28
NK-YS (IL-2 2.5 ng/mL) [21]	0.13
NKL (IL-2 2.5 ng/mL) [22]	3.24
SNK-6 (IL-2 2.5 ng/mL) [23]	0
YT (IL-2 2.5 ng/mL) [24]	0
[15]	4.02
[25]	1.29
[26]	3.36
[27]	1.38
[28]	0.26
